The source of these data is ChEMBL document CHEMBL4396958, “Anti-inflammatory phenylpropanoid glycosides from the fruits of Forsythia suspensa” (Bioorg Med Chem Lett, 2019).

In assay [1] the test system is Macrophage. The experiment in a line: Inhibition of TNFalpha expression in LPS-induced macrophages (unknown origin) at 10 uM incubated for 24 hrs by ELISA relative to control. It is filed as functional.
Assay [2] concerns Macrophage. The experiment in a line: Inhibition of TNFalpha expression in LPS-induced macrophages (unknown origin) incubated for 24 hrs by ELISA. It is filed as functional, cell-based. A general note: ELISA stands for enzyme-linked immunosorbent assay.

`C[C@@H]1C[C@H]2[C@@H]3CCC4=CC(=O)C=C[C@]4(C)[C@@]3(F)[C@@H](O)C[C@]2(C)[C@@]1(O)C(=O)CO` [DEXAMETHASONE] had an inhibition at 10 µM with Macrophage [1] of 82.5%. In the assay on Macrophage [2], this compound yielded an IC50 of 134 nM.
In the same order, the values of `O=C(/C=C/c1ccc(O)cc1)OC[C@H]1O[C@@H](Oc2ccc(/C=C/C(=O)OC[C@H]3OC(O)[C@H](O)[C@@H](O)[C@@H]3O)cc2O)[C@H](O)[C@@H](O)[C@@H]1O` (some centres undefined) are 98.3% and 1050 nM.

In general, inhibition refers to the percentage by which the read-out fell short of the control. Lower therefore signals little suppression. As usually defined, the IC50 is the midpoint of a concentration-inhibition curve. Lower therefore signals greater potency in that assay.
